Publication PMC11152041, “Tricarbonyl rhenium(I) complexes with 8-hydroxyquinolines: structural, chemical, antibacterial, and anticancer characteristics” (RSC Advances, 2024)
In brackets after ≈: the same amount, converted by molar mass. Like-named read-outs stand apart in the source and are kept apart here.

Legend:
E. faecalis ATCC29212 = assay: Broth microdilution MIC/MBC (ISO 20776-1); format: cell-based, Enterococcus faecalis; conditions: for MBC: E. faecalis ATCC29212, >99.99% reduction of growth; for MIC: E. faecalis ATCC29212, MH II broth, 35 °C, 24 h
Experimental: (§1) Bacterial strains and cell lines were obtained from the American Type Culture Collection (ATCC).[59] […] Antimicrobial activity was tested in Müeller Hinton (MH) II broth (Becton Dickinson). For anticancer activity assay, the following reagents from Merk were used: 3-(4,5-dimethylthiazol-2-yl)-2,5-diphenyltetrazolium bromide (MTT), sodium dodecyl sulfate (SDS) and HCl. The solubilized formazan product was spectrophotometrically quantified in a Power Wave XS (Bio Tek, Winooski, VT, USA) microplate reader. The HL-60 and PC-3 cells were grown in RPMI-1640 medium with stable glutamine (Biowest) supplemented with 10% (v/v) of heat-inactivated fetal bovine serum (FBS, Biowest) and 1% (v/v) of antibiotic–antimycotic solution (Biowest). The SKOV-3 cells were grown in McCoy's 5A medium with L-glutamine (Biowest) supplemented with 10% (v/v) heat-inactivated FBS, and 1% (v/v) antibiotic–antimycotic solution. The MCF-7 cells were grown in Eagle's MEM (Minimal Essential Medium) medium with stable glutamine (Biowest), supplemented with 10% (v/v) heat-inactivated FBS 1% (v/v) MEM non-essential amino acids (Biowest), 1% (v/v) antibiotic–antimycotic solution, and 1 mM sodium pyruvate (Merck). The MCF-10A cells were grown in Ham's F-12K (Kaighn's) Medium with stable glutamine (Gibco) supplemented with 5% (v/v) heat-inactivated FBS, 1% (v/v) MEM non-essential amino acids, 1% (v/v) antibiotic–antimycotic solution, 5 μg mL^−1 insulin, 0.04 μg mL^−1 hydrocortisone (Merck), and 15 ng mL^−1 human Epidermal Growth Factor (hEGF, PeproTech).
(§2) The in vitro antibacterial activity was determined according to ISO 20776-1.[88] Among the tested microorganisms were Gram-negative rods, E. coli ATCC25922 and P. aeruginosa ATCC27853, and Gram-positive cocci, S. aureus ATCC29213 and E. faecalis ATCC29212. The selected bacterial species represented the most common etiologic agents of human infections and are used for quality control of antimicrobial susceptibility testing.[89] The test procedure included the determination of MICs and MBCs of complexes and their free ligands. MIC and MBC determinations of ciprofloxacin, as the reference antibiotic, were also performed. All compounds were dissolved in DMSO to reach the maximum 512 mg L^−1 concentration. […] The assay consisted of preparing 2-fold dilutions of the substances in a liquid growth medium MH II and inoculating them with a standardized suspension of microorganisms at a McFarland density of 0.5 (≈10^8 CFU mL^−1). The culture plates were incubated at 35 °C for 24 h. The lowest concentration of the compound inhibiting visible bacterial growth was specified as MIC, and the concentration that reduced bacterial growth by >99.99% after counting live bacteria on the plates compared to the positive control was defined as MBC.

E. coli ATCC25922 = assay: Broth microdilution MIC/MBC (ISO 20776-1); format: cell-based, Escherichia coli; conditions: for MBC: E. coli ATCC25922, >99.99% reduction of growth; for MIC: E. coli ATCC25922, MH II broth, 35 °C, 24 h
Experimental: as §1, §2

HL-60 cells = assay: MTT cytotoxicity assay; format: cell-based, human
Experimental: (§3) The cytotoxicities for studied compounds were evaluated against leukemia cells (HL-60), as well as ovarian (SKOV-3), prostate (PC-3), and breast (MCF-7) cancer cell lines. The potential selectivity of these compounds towards cancer cells was assessed by determination of their cytotoxicities towards breast non-cancerous cells (MCF-10A). For comparison, cisplatin was added to the cytotoxicity assays.
as §1
(§4) The cells were cultured in 96-well plates and incubated with the tested compound for 24 h and 48 h. All experiments were performed in exponentially growing cultures. The 0.03 M solutions of the compounds in DMSO were appropriately diluted using culture media. The maximal final concentration of DMSO in each well was 0.1%. The cytotoxicity of the compounds was measured by determining cell viability with a colorimetric test based on 3-(4,5-dimethylthiazol-2-yl)-2,5-diphenyltetrazolium bromide (MTT). MTT stock solution was added to each well to a final concentration of 0.5 mg mL^−1 and incubated for 4 h at 37 °C; following formazan crystals were dissolved by the addition of sodium dodecyl sulfate (SDS) solution (10% SDS in 0.001 M HCl). MTT and SDS were added directly to the cell culture. The compound's IC50 values (concentration required to reduce the viability of cells by 50% compared with the control cells) were calculated from the data obtained with the MTT assay.

PC-3 cells = assay: MTT cytotoxicity assay; format: cell-based, human; conditions: MTT, read-out: IC50 ± SD
Experimental: as §3, §1, §4

MCF-7 cells = assay: MTT cytotoxicity assay; format: cell-based, human; conditions: for IC50: MTT, read-out: IC50 ± SD
Experimental: as §3, §1, §4

SKOV-3 cells = assay: MTT cytotoxicity assay; format: cell-based, human; conditions: for IC50: MTT, read-out: IC50 ± SD
Experimental: as §3, §1, §4

S. aureus ATCC29213 = assay: Broth microdilution MIC/MBC (ISO 20776-1); format: cell-based, Staphylococcus aureus; conditions: for MBC: S. aureus ATCC29213, >99.99% reduction of growth; for MIC: S. aureus ATCC29213, MH II broth, 35 °C, 24 h
Experimental: as §1, §2

MCF-10A cells = assay: MTT cytotoxicity assay; conditions: for IC50: read-out: IC50 ± SD
Experimental: as §3, §1, §4

P. aeruginosa ATCC27853 = assay: Broth microdilution MIC/MBC (ISO 20776-1); format: cell-based, Pseudomonas aeruginosa; conditions: for MBC: P. aeruginosa ATCC27853, >99.99% reduction of growth; for MIC: P. aeruginosa ATCC27853, MH II broth, 35 °C, 24 h
Experimental: as §1, §2

[1] = HL-60, 24 h, MTT, read-out: IC50 ± SD
[2] = HL-60, 48 h, MTT, read-out: IC50 ± SD
[3] = MCF-10A (non-cancerous), 24 h, MTT, * precipitation of the complex
[4] = MCF-10A (non-cancerous), 48 h, MTT, * precipitation of the complex
[5] = Enterococcus faecalis, read-out: MBC
[6] = Enterococcus faecalis, read-out: MIC
[7] = Escherichia coli, read-out: MBC
[8] = Escherichia coli, read-out: MIC
[9] = Staphylococcus aureus, read-out: MBC
[10] = Staphylococcus aureus, read-out: MIC
[11] = Pseudomonas aeruginosa, read-out: MBC
[12] = Pseudomonas aeruginosa, read-out: MIC

SMILES	MBC (E. faecalis ATCC29212)	MIC (E. faecalis ATCC29212)	MBC (E. coli ATCC25922)	MIC (E. coli ATCC25922)	IC50 (HL-60 cells; [1]) [µM]	IC50 (HL-60 cells; [2]) [µM]	IC50 (PC-3 cells; PC-3, 24 h) [µM]	IC50 (PC-3 cells; PC-3, 48 h) [µM]	IC50 (MCF-7 cells; MCF-7, 24 h) [µM]	IC50 (MCF-7 cells; MCF-7, 48 h) [µM]	IC50 (SKOV-3 cells; SKOV-3, 24 h) [µM]	IC50 (SKOV-3 cells; SKOV-3, 48 h) [µM]	MBC (S. aureus ATCC29213)	MIC (S. aureus ATCC29213)	IC50 (MCF-10A cells; [3]) [µM]	IC50 (MCF-10A cells; [4]) [µM]	MBC (P. aeruginosa ATCC27853)	MIC (P. aeruginosa ATCC27853)	further results
Cc1ncc[nH]1.[C-]#[O+].[C-]#[O+].[C-]#[O+].[Re][O]c1cccc2cccnc12 [complex 2, [Re(CO)3(Q)MeHim]]	> 512 mg/L	128 mg/L	>512/>512 mg L^−1	>512/>512 mg L^−1	10 ± 1	9 ± 1	34 ± 3	35 ± 2	36 ± 3	30 ± 1	> 100	44 ± 1	> 512 mg/L	256 mg/L	31 ± 4	29 ± 5	>512/>512 mg L^−1	>512/>512 mg L^−1	
Clc1ccc([O][Re])c2ncccc12.[C-]#[O+].[C-]#[O+].[C-]#[O+].c1ccc(-c2ccn[nH]2)cc1 [complex 12, [Re(CO)3(ClQ)HPhpz]]	> 512 mg/L	16 mg/L	>512/>512 mg L^−1	>512/>512 mg L^−1	2 ± 1	1.5 ± 0.4	41 ± 8	23 ± 4	29 ± 3	25 ± 4	> 100	78 ± 12	> 512 mg/L	128 mg/L	34 ± 3	14 ± 1	>512/>512 mg L^−1	>512/>512 mg L^−1	
Oc1ccc(Cl)c2cccnc12 [ClHQ, 5-chloro-8-hydroxyquinoline, reference compound]																			MBC (E. faecalis ATCC29212; [5]): < 0.5 mg/L; MIC (E. faecalis ATCC29212; [6]): < 0.5 mg/L; MBC (E. coli ATCC25922; [7]): > 512 µg/mL; MIC (E. coli ATCC25922; [8]): 16 µg/mL (≈ 89.1 µM); IC50 (HL-60 cells; Homo sapiens, HL-60, 24 h, MTT, read-out: IC50 ± SD): 1.7 ± 0.1 µM; IC50 (HL-60 cells; Homo sapiens, HL-60, 48 h, MTT, read-out: IC50 ± SD): 1.6 ± 0.4 µM; IC50 (HL-60 cells; Homo sapiens, HL-60, incubation time not stated in the text (24 and 48 h), read-out: IC50): < 2 µM; IC50 (PC-3 cells; Homo sapiens, PC-3, 24 h): 25 ± 3 µM; IC50 (PC-3 cells; Homo sapiens, PC-3, 48 h): 39 ± 3 µM; IC50 (MCF-7 cells; Homo sapiens, MCF7, MCF-7, 24 h): 32 ± 8 µM; IC50 (MCF-7 cells; Homo sapiens, MCF7, MCF-7, 48 h): 13 ± 5 µM; selectivity: IC50 for normal cells times higher than for breast cancer cells (MCF-7 cells; MCF-10A versus MCF-7): at least 3 times; IC50 (SKOV-3 cells; Homo sapiens, SK-OV-3, SKOV-3, 24 h): > 100 µM; IC50 (SKOV-3 cells; Homo sapiens, SK-OV-3, SKOV-3, 48 h): 42 ± 7 µM; MBC (S. aureus ATCC29213; [9]): 32 mg/L (≈ 178 µM); MIC (S. aureus ATCC29213; [10]): 8 mg/L (≈ 44.5 µM); IC50 (MCF-10A cells; Homo sapiens, MCF-10A, 24 h): > 100 µM; IC50 (MCF-10A cells; Homo sapiens, MCF-10A, 48 h): 70 ± 1 µM; MBC (P. aeruginosa ATCC27853; [11]): > 512 µg/mL; MIC (P. aeruginosa ATCC27853; [12]): 256 µg/mL (≈ 1430 µM)
Clc1ccc([O][Re])c2ncccc12.[C-]#[O+].[C-]#[O+].[C-]#[O+].c1c[nH]cn1 [complex 9, [Re(CO)3(ClQ)Him]]	> 512 mg/L	64 mg/L	256/256 mg L^−1	256/256 mg L^−1	11 ± 1	8 ± 2	29 ± 4	22 ± 3	58 ± 7	47 ± 6	32 ± 5	28 ± 4	>512/>512 mg L^−1	>512/>512 mg L^−1	42 ± 2	24 ± 1	> 512 µg/mL	256 µg/mL	
Cc1cc(C)[nH]n1.Clc1ccc([O][Re])c2ncccc12.[C-]#[O+].[C-]#[O+].[C-]#[O+] [complex 11, [Re(CO)3(ClQ)Hdmpz]]	64/64 mg L^−1	64/64 mg L^−1	512/>512 mg L^−1	512/>512 mg L^−1	5 ± 1	2.8 ± 0.4	18 ± 1	24 ± 4	18 ± 5	25 ± 3	40 ± 6	32 ± 7	256 mg/L	64 mg/L	24 ± 3	10 ± 1	>512/>512 mg L^−1	>512/>512 mg L^−1	
N.N.[Cl][Pt][Cl] [cisplatin, reference compound]					46 ± 1		58 ± 6	20 ± 2			> 100	> 100			> 100	> 100			activity (SKOV-3 cells; SKOV-3, incubation time not given): no action; IC50 / activity on normal cells (MCF-10A cells; MCF-10A, incubation time not given): no action
O=C(O)c1cn(C2CC2)c2cc(N3CCNCC3)c(F)cc2c1=O [CIP, ciprofloxacin, reference compound]																			MBC (E. faecalis ATCC29212; [5]): 8 mg/L (≈ 24.1 µM); MIC (E. faecalis ATCC29212; [6]): 2 mg/L (≈ 6.04 µM); MBC (E. coli ATCC25922; [7]): 4 µg/mL (≈ 12.1 µM); MIC (E. coli ATCC25922; [8]): < 0.5 µg/mL; MBC (S. aureus ATCC29213; [9]): 1 mg/L (≈ 3.02 µM); MIC (S. aureus ATCC29213; [10]): < 0.5 mg/L; MBC (P. aeruginosa ATCC27853; [11]): 8 µg/mL (≈ 24.1 µM); MIC (P. aeruginosa ATCC27853; [12]): 1 µg/mL (≈ 3.02 µM)
